Activity calls are given as the source filed them. No cut-off for these calls is given here.
These molecules were tested against T1, Tyrosine-protein phosphatase non-receptor type 1 (Homo sapiens) (UniProt P18031) (assay: (§1) Inhibition of PTP1B).
T1 sequence (whole entry): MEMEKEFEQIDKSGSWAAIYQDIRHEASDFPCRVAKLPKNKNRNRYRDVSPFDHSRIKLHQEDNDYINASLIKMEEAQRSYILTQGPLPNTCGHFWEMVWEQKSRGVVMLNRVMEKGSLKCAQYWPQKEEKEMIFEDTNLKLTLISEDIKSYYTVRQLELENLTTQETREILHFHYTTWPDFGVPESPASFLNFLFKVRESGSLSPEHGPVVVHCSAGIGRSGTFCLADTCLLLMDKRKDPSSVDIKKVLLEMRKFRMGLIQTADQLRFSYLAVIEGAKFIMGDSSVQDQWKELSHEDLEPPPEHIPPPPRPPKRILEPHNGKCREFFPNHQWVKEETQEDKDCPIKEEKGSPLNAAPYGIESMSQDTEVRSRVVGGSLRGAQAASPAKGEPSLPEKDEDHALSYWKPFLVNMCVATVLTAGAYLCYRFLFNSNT

Activity	Structure (SMILES)
inactive	O=C(O)COc1c(C(=O)O)sc(-c2ccccc2)c1-c1ccccc1

Each molecule was assayed against T2, Tyrosine-protein phosphatase non-receptor type 1 (Homo sapiens, UniProt P18031) (assay: as §1).
T2 sequence (P18031 whole entry): T1 sequence (whole entry)

Structure (SMILES)	Ki [µM]
O=C(O)COc1c(C(=O)O)sc(Br)c1Br	18
O=C(O)COc1ccsc1C(=O)O	> 1000
O=C(O)COc1c(C(=O)O)sc(-c2ccc3ccoc3c2)c1Br	5
O=C(O)COc1c(-c2ccccc2)csc1C(=O)O	> 1000
O=C(O)COc1c(C(=O)O)sc(-c2cccnc2)c1Br	4
O=C(O)COc1c(C(=O)O)sc(-c2ccc3ccccc3c2)c1Br	3.3
Cc1csc(C(=O)O)c1OCC(=O)O	> 1000
COc1ccc(-c2sc(C(=O)O)c(OCC(=O)O)c2Br)cc1	3

Results, then the molecule that gave them:

Ki [µM]	Structure (SMILES)
0.25	CC1(C)CC(Nc2ccc(-c3sc(C(=O)O)c(OCC(=O)O)c3Br)cc2)CC(C)(C)C1
1	O=C(O)COc1c(C(=O)O)sc(-c2cccc(O)c2)c1Br
1.2	CN(c1ccc(-c2sc(C(=O)O)c(OCC(=O)O)c2Br)cc1)S(=O)(=O)c1ccc(C(F)(F)F)cc1
0.2	O=C(O)COc1c(C(=O)O)sc(-c2ccc(NS(=O)(=O)c3ccc(C(F)(F)F)cc3)cc2)c1Br
1.6	Nc1ccc(-c2sc(C(=O)O)c(OCC(=O)O)c2Br)cc1
2.5	O=C(O)COc1c(C(=O)O)sc(-c2ccc(C(=O)Nc3ccccc3)cc2)c1Br
0.6	O=C(O)COc1c(C(=O)O)sc(-c2ccc(NC(=O)c3ccccc3)cc2)c1Br
0.57	O=C(O)COc1c(C(=O)O)sc(-c2ccc3cc[nH]c3c2)c1Br
0.36	CC(C)NC(=O)Nc1ccc(-c2sc(C(=O)O)c(OCC(=O)O)c2Br)cc1
1.4	O=C(O)COc1c(C(=O)O)sc(-c2ccsc2)c1Br
0.74	CS(=O)(=O)Nc1ccc(-c2sc(C(=O)O)c(OCC(=O)O)c2Br)cc1
1	COC(=O)Nc1ccc(-c2sc(C(=O)O)c(OCC(=O)O)c2Br)cc1
0.62	O=C(O)COc1c(C(=O)O)sc(-c2ccc(NC(=O)c3ccco3)cc2)c1Br
0.5	CC(=O)Nc1ccc(-c2sc(C(=O)O)c(OCC(=O)O)c2Br)cc1

What follows are molecules tested against T3, Receptor-type tyrosine-protein phosphatase C (Homo sapiens, UniProt P08575) (assay: Inhibition of CD45).
T3 sequence (P08575 whole entry): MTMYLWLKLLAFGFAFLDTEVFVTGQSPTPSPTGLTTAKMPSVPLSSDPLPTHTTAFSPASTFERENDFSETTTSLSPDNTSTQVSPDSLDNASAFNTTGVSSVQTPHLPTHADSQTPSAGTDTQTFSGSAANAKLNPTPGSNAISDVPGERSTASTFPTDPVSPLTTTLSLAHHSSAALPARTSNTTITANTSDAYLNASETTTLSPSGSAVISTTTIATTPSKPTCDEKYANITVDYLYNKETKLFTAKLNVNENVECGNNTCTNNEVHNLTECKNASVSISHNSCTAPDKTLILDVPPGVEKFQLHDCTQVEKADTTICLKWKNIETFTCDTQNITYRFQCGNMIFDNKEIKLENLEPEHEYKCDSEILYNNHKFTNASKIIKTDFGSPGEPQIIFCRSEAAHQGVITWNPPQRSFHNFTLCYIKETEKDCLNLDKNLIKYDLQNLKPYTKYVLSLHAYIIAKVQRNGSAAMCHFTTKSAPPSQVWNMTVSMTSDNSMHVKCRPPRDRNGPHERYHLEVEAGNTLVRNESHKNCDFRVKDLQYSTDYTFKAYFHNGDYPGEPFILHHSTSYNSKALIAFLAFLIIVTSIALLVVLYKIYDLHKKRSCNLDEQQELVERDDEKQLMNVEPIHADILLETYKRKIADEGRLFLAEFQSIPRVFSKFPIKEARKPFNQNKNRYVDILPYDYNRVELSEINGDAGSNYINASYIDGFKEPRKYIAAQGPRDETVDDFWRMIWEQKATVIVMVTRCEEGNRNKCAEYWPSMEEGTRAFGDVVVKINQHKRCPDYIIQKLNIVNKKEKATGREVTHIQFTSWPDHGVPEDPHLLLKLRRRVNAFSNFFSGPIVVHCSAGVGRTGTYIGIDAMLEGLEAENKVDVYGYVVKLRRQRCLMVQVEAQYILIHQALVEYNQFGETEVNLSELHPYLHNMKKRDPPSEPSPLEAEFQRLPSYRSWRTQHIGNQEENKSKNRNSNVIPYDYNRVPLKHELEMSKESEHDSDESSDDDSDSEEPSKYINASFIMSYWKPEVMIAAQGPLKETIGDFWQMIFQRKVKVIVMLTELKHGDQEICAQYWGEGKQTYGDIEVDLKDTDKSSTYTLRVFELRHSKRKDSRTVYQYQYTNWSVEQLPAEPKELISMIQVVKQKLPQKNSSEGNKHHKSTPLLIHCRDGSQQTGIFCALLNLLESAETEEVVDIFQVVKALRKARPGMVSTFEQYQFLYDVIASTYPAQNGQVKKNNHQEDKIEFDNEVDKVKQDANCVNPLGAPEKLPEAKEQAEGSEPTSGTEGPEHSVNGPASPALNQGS

Ki [µM]	Structure (SMILES)
26	O=C(O)COc1c(C(=O)O)sc(-c2ccccc2)c1Br
55	O=C(O)COc1c(C(=O)O)sc(-c2ccc(NC(=O)c3cccnc3)cc2)c1Br
64	CN(C)c1ccc(-c2sc(C(=O)O)c(OCC(=O)O)c2Br)cc1
33	O=C(O)COc1c(C(=O)O)sc(-c2ccc(NC(=O)CC(=O)O)cc2)c1Br

Each molecule was assayed against Receptor-type tyrosine-protein phosphatase F (Homo sapiens, UniProt P10586) (assay: Inhibition of LAR).
Chain of Receptor-type tyrosine-protein phosphatase F (P10586 whole entry): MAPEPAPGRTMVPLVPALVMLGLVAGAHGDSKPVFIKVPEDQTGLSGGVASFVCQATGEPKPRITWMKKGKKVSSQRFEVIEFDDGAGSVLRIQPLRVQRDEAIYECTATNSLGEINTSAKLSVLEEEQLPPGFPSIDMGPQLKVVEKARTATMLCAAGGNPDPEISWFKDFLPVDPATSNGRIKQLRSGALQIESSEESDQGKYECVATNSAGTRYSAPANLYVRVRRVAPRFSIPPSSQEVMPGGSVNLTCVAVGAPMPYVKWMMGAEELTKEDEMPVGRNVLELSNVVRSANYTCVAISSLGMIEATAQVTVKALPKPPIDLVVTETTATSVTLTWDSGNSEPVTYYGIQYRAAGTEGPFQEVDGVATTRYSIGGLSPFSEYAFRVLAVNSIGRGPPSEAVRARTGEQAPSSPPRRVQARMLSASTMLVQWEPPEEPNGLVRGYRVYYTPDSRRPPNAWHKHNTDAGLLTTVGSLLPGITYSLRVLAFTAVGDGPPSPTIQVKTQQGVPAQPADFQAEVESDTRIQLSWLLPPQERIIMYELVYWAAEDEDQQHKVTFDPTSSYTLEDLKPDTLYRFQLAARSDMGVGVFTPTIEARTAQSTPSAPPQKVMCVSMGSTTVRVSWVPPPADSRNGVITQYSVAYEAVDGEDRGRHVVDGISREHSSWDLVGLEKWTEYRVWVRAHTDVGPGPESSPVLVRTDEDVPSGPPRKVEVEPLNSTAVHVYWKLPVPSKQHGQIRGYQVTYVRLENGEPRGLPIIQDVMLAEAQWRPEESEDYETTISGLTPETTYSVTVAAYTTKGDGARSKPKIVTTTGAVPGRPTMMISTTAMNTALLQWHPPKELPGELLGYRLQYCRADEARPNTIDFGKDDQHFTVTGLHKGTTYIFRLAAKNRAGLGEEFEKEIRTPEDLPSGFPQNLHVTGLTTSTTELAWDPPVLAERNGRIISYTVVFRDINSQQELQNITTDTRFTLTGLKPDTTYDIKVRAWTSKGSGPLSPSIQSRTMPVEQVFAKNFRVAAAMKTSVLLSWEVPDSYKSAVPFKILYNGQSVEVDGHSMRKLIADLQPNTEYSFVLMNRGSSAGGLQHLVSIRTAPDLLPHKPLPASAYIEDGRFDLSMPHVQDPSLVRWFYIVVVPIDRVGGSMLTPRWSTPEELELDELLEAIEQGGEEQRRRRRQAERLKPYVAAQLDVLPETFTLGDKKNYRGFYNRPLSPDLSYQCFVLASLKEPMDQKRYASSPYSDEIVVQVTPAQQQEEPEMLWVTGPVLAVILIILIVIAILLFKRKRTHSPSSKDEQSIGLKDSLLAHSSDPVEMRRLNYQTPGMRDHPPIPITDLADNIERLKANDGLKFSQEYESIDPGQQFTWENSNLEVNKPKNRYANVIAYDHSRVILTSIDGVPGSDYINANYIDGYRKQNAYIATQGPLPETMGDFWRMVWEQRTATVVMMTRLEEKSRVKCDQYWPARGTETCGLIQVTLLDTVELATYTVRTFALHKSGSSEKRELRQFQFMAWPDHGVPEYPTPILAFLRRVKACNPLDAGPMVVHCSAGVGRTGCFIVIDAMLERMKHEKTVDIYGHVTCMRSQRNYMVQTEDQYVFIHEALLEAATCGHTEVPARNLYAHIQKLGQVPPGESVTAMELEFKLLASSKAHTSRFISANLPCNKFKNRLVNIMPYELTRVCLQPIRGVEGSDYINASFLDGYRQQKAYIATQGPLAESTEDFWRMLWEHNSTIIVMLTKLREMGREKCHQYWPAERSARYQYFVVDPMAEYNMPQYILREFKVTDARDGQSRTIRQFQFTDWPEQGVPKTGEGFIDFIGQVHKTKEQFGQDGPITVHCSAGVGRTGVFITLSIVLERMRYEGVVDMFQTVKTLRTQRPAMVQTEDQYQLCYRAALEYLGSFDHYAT

Ki [µM]	Structure (SMILES)
> 1000	O=C(O)COc1c(C(=O)O)sc(-c2ccccc2)c1Br
320	O=C(O)COc1c(C(=O)O)sc(-c2ccc(NC(=O)c3cccnc3)cc2)c1Br
> 1000	CN(C)c1ccc(-c2sc(C(=O)O)c(OCC(=O)O)c2Br)cc1
> 1000	O=C(O)COc1c(C(=O)O)sc(-c2ccc(NC(=O)CC(=O)O)cc2)c1Br

— ChEMBL document CHEMBL1149477, “Monocyclic thiophenes as protein tyrosine phosphatase 1B inhibitors: capturing interactions with Asp48” (Bioorg Med Chem Lett, 2006)
